Laboratory results as given in patent US20260091082A1, “CYCLIC PEPTIDE DERIVATIVE COMPOSITION FOR TREATING OR PREVENTING EYE DISEASE” (DKS Co. Ltd., priority 2022, published 2026).
Where “and” joins values, the source holds several entries; their conditions need not be identical. Equal entries are not always repeated.

Legend:
[1] = General condition observation (clinical signs) in anterior chamber aqueous humor pressure load rat model; format: in vivo, Rat; Slc: SD; set-up: key: —: No anormal sign; settings: 10 mg/mL intravenous, once about 30 minutes before ischemic load, animals 401-410 (test group 4), per animal
Method: (§1) • Species and strains: Rat; Slc: SD • Number of animals on arrival and sex: 50 males • Age in weeks at arrival: 6 weeks old • Body weight range at arrival: 147.2 to 170.0 g • Source: Japan SLC, Inc.
The body weight of the animals was measured at a frequency of once a week or more, and the general condition observation was performed every day.
(§2) • Administration route: Eyedrop administration, intravenous administration • Administration method (eyedrop): Eyedrop administration was performed on a treated eye (right eye) of a rat using a micropipette 4 times a day (at intervals of 1.5 hours or more). • Administration method (intravenous): The amount of administration solution, calculated from the body weight on the day of administration, was administered from the tail vein using a syringe and an injection needle about 30 minutes before ischemic load. • Time of administration: Administration was performed according to the following schedule.

[2] = system: anterior chamber aqueous humor pressure load rat model; assay: Retinal thickness (IPL, INL, ONL) in retinal damage model induced by anterior chamber aqueous humor pressure load; format: in vivo, Rat; Slc: SD; settings: 10 mg/mL intravenous, right eye
Method: • Name: Compound 9 • Source: Synthesized in the above Examples • Used amount: 0.4 mL (50 mg/mL solution) • Storage conditions: Freezing, light shielding
Method for preparing test substance (1 mg/mL): A high concentration solution prepared at 50 mg/mL was diluted 50 times with a medium to prepare a 1 mg/mL administration solution.
• Name: MK-801 • Distributor: SIGMA-ALDRICH • Use amount: 0.0501 g • Storage condition: refrigerated (2° C. to 8° C.)
Method for preparing positive control substance (10 mg/mL): 0.0501 g was weighed out and made up to a total volume of 5 mL with a control substance (physiological saline).
as §1
Grouping was performed two days before the first creation of the retinal damage model induced by an anterior chamber aqueous humor pressure load. Using the daily body weight as an index, stratified random allocation was performed using SAS (Ver. 9.3, SAS Institute Japan Ltd.) and EXSUS (Ver. 8.0, CAC Croit Corporation) so that an average value of the body weights of each group was approximately uniform.
as §2
1. 10 mg/kg xylazine hydrochloride was intramuscularly administered on the model creation day (day 0). A rat was placed in an anesthesia box and subjected to general anesthesia with isoflurane (5%, oxygen:nitrous oxide=1:3). When anesthesia was effective, the rat was taken out of the anesthesia box, an inhalation anesthetic mask was worn, and anesthesia was maintained with isoflurane (1% to 5%, oxygen nitrous oxide=1:3).
2. The body temperature was maintained at 37° C. with a warming mat, and a mydrin P ophthalmic solution was instilled in the right eye (treated eye) of the rat to dilate the pupil, then the cravit ophthalmic solution 1.5% (Santen Pharmaceutical Co., Ltd.) was instilled.
3. A bottle of an IV bag containing physiological saline was previously suspended so that a water surface was 155 cm (100 mmHg or more) higher than the eye of the rat. The IV bag was connected to a pediatric infusion set (Terumo Corporation), a 27 G injection needle thereof was inserted into and fixed to the anterior chamber while slightly dripping the liquid from a needle tip. The model was created in the light phase (6:00 to 18:00) in consideration of the diurnal variation of the intraocular pressure.
4. After the needle was inserted into the anterior chamber, pressure (100 mmHg or more) was loaded and maintained in the anterior chamber by associating the reflux system.
5. After an ischemic load for 45 minutes, the injection needle and the like were removed, the inhalation anesthetic mask was removed, and the rat was sufficiently woken up under a warming mat, and then returned to the cage.
6. For 2 days after surgery, 10 mg/kg xylazine hydrochloride was intramuscularly administered as an analgesic for the purpose of alleviating the pain after the treatment.
1. Fourteen days after model creation, general anesthesia was performed with isoflurane (5%, oxygen:nitrous oxide=1:3), euthanasia was then performed by exsanguination, a suture was placed as a marker at the 12 o'clock position of the ocular conjunctiva, and eyeball enucleation was performed.
2. […]

[3] = 300 μm from optic disk, individual measurements per animal
[4] = 300 μm from optic disk, mean per animal

With C[C@]12N[C@H](Cc3ccccc31)c1ccccc12 [MK-801, reference compound] the Clinical signs ([1]; Day 0) was “—”, the Clinical signs ([1]; Day 1) was “—” and the Clinical signs ([1]; Day 2) was “—”. For the same compound, the Clinical signs ([1]; Day 3) was “—”, the Clinical signs ([1]; Day 4) was “—” and the Clinical signs ([1]; Day 5) was “—”. The Clinical signs ([1]; Day 6) was “—”, the Clinical signs ([1]; Day 7) was “—” and the Clinical signs ([1]; Day 8) was “—”. The Clinical signs ([1]; Day 9) was “—”, the Clinical signs ([1]; Day 10) was “—” and the Clinical signs ([1]; Day 11) was “—”. For the same compound, the Clinical signs ([1]; Day 12) was “—”, the Clinical signs ([1]; Day 13) was “—” and the Clinical signs ([1]; Day 14 (day of necropsy)) was “—”. The Clinical signs ([1]; Day −1) was “—”, the Clinical signs ([1]; Day −2) was “—” and the “Thickness of INL (μm), Distance from Optic Disk 300 μm” value [2, 3] was 43.354 μm and 38.856 μm and 38.516 μm and 27.422 μm (2×) and 28.629 μm and 30.645 μm and 26.920 μm and 25.120 μm and 24.650 μm and 35.504 μm and 33.881 μm and 32.856 μm and 27.965 μm and 24.925 μm and 25.788 μm and 20.485 μm and 25.262 μm and 25.607 μm and 23.821 μm and 27.016 μm and 25.835 μm and 27.670 μm and 26.395 μm and 24.758 μm and 25.159 μm and 24.873 μm and 35.703 μm and 32.278 μm and 31.627 μm. The “Thickness of IPL (μm), Distance from Optic Disk 300 μm” value [2, 3] was 47.608 μm and 50.434 μm and 48.521 μm and 38.326 μm and 39.132 μm and 40.728 μm and 36.614 μm and 38.136 μm and 36.780 μm and 37.923 μm and 37.097 μm and 36.446 μm and 38.879 μm and 37.066 μm and 37.189 μm and 34.034 μm and 34.084 μm and 33.182 μm and 34.736 μm and 31.462 μm and 32.671 μm and 35.348 μm and 37.744 μm and 37.108 μm and 43.612 μm and 37.515 μm and 38.865 μm and 37.237 μm and 35.429 μm and 37.489 μm, the “Thickness of INL (μm), Distance from Optic Disk 300 μm, Mean” value [2, 4] was 40.242 μm and 28.899 μm and 25.563 μm and 34.080 μm and 26.226 μm and 23.785 μm and 25.557 μm and 27.162 μm and 24.930 μm and 33.203 μm and the “Thickness of IPL (μm), Distance from Optic Disk 300 μm, Mean” value [2, 4] was 48.854 μm and 39.395 μm and 37.177 μm and 37.155 μm and 37.711 μm and 33.767 μm and 32.956 μm and 36.733 μm and 39.997 μm and 36.718 μm. For the same compound, the “Thickness of INL (μm), Distance from Optic Disk 600 μm” value ([2]; 600 μm from optic disk, individual measurements per animal) was 38.743 μm and 36.612 μm and 29.504 μm and 25.885 μm and 27.808 μm and 31.247 μm and 41.632 μm and 47.024 μm and 32.661 μm and 30.741 μm and 27.960 μm and 28.852 μm and 19.795 μm and 16.209 μm and 32.381 μm and 32.162 μm and 24.755 μm and 25.923 μm (2×) and 32.268 μm and 39.011 μm and 36.780 μm and 28.629 μm and 32.351 μm and 44.795 μm and 30.775 μm and 27.268 μm and 20.418 μm and 31.364 μm and 35.532 μm.
